Legend:
[1] = biological target: PRMT5:MEP50 complex (Homo sapiens, UniProt O14744); experiment: SPR; format: binding
[2] = biological target: EZH2 (Homo sapiens, UniProt Q15910); experiment: SPR; format: binding
Chain of EZH2 (Q15910 whole entry): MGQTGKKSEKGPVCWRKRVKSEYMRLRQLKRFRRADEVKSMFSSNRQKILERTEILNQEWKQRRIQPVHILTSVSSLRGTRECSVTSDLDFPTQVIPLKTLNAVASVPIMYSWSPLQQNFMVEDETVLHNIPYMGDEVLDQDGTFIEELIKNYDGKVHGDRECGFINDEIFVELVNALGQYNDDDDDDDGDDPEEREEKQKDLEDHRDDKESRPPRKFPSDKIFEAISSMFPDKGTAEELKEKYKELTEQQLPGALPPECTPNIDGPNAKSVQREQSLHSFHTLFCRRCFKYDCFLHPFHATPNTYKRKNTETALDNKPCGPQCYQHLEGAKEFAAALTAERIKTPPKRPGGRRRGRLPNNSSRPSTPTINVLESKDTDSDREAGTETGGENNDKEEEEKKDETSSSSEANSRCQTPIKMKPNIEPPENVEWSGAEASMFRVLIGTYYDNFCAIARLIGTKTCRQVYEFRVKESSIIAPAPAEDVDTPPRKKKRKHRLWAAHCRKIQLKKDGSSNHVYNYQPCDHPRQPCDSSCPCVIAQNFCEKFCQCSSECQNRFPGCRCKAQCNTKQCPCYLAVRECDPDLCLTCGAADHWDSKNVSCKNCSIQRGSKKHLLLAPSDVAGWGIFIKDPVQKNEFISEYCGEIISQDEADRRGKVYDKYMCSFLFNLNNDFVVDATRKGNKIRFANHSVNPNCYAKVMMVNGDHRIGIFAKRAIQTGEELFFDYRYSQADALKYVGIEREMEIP

Chain of PRMT5:MEP50 complex (O14744 2-637): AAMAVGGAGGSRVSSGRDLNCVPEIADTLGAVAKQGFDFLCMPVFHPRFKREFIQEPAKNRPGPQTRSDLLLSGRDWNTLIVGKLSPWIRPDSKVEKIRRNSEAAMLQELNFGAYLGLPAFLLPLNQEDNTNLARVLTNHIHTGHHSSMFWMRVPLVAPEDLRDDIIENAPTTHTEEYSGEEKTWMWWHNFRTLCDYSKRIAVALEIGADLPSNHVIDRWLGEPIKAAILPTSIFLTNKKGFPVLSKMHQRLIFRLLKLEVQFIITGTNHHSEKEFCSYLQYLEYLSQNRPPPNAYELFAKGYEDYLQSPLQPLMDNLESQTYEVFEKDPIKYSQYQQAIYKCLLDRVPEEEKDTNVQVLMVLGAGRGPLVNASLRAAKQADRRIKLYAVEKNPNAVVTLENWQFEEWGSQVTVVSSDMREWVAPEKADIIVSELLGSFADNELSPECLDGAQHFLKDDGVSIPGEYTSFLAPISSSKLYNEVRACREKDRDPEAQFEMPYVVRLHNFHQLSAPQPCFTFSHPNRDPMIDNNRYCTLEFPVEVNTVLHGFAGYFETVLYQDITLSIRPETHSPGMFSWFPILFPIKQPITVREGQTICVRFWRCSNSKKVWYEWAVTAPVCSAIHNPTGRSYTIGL
Chain of PRMT5:MEP50 complex (Q9BQA1 whole entry partner): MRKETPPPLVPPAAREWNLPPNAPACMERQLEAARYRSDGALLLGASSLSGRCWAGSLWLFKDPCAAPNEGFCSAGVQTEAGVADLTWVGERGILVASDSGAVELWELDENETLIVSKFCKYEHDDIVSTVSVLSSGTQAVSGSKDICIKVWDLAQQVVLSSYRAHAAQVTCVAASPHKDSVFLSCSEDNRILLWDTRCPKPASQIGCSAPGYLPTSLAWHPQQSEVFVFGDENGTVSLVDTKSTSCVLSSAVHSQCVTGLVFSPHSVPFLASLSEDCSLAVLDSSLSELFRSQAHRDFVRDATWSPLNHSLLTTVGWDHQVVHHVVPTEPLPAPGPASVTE

- Kd [1]: 65.4 µM
- Kd [2]: 3.28 µM
SMILES: O=c1oc2c(O)c(O)cc3c(=O)oc4c(O)c(O)cc1c4c23 [Ellagic acid]

Reference: publication doi:10.1101/2024.05.22.595443v1 (biorxiv, 2024)
